We go through one compound from patent US10294530B2, “Biomarker FOXF2 for gastric cancer” (The Chinese University of Hong Kong, priority 2016, dated 2019).

Structures are written as SMILES.

This assay has as its system FOXF2 expression. Kind of assay: Demethylation treatment, FOXF2 expression by semi-quantitative PCR. It counts as cell-based, human. The method, then:
Semi-quantitative PCR was performed in a total volume of 20 μL reaction containing GeneAmp 1×PCR Buffer II (Applied Biosystems), 2.5 mM MgCl2, 200 μM each of dNTP, 200 nM each of primers, 0.4 U of AmpliTaq Gold DNA polymerase (Applied Biosystems) and 30˜50 ng cDNA. The PCR program started with an initial denaturation at 94° C. for 10 min, followed by 32-35 cycles (94° C. for 30 sec, annealing temperature for 30 sec, and 72° C. for 30 sec) of amplification, with a final extension at 72° C. for 10 min. The PCR bands were visualized under ultraviolet light and photographed. The expression of the target gene was normalized by the expression of house-keeping gene β-actin, which served as an internal control.
Cells were seeded at a density of 1×10^5/100-mm dishes and grew for 24 hours. Cells were then treated with 2 μM 5-aza-2′-deoxycytidine (“5-Aza”) (Sigma-Aldrich) for 5 days. The 5-Aza was replenished every day. The gene expression of FOXF2 was evaluated using semi-quantitative PCR.

Regarding `Nc1ncn([C@H]2C[C@H](O)[C@@H](CO)O2)c(=O)n1` [5-Aza, 5-aza-2′-deoxycytidine], the FOXF2 expression entry (AGS, 2 μM 5-Aza for 5 days) is “restored”; the FOXF2 expression result (MKN28, 2 μM 5-Aza for 5 days) was “restored”; the FOXF2 expression entry (MKN45, 2 μM 5-Aza for 5 days) is “restored”; the FOXF2 expression result (MKN74) is recorded as “insufficient”; the FOXF2 expression entry (NCL-N87, 2 μM 5-Aza for 5 days) was “restored”; the FOXF2 expression result (SNU719, 2 μM 5-Aza for 5 days) is “restored”.
